From patent US20140309257A1, “TOPOISOMERASE INHIBITORS AND METHODS OF MAKING AND USE AS THERAPEUTIC AGENTS” (THE REGENTS OF THE UNIVERSITY OF COLORADO, a body corporate, priority 2011, published 2014)

Tests used:
TopoIIα = TopoIIα (Homo sapiens, UniProt P11388); assay: In vitro ATP hydrolysis assay (malachite green); assay type: biochemical
Description: Efficacy of the ATP-competitive inhibition of TopoIIα inhibitors of the invention are tested in vitro using an ATP hydrolysis assay that quantifies inorganic phosphate through the formation of a high molar absorptivity complex with malachite green and molybdate, adapted for use in 384-well plates, with a total reaction volume of 15 μL. This assay was first utilized to determine the Km of TopoIIα for its natural substrate, ATP, using ATP concentrations ranging from 62.5-1600 μM. To measure the apparent Km, the same reactions were repeated in the presence of 2, 5, or 10 μM neo. Absorbance at 620 nm was measured using a microtiter plate reader. To determine the Ki the same method was used with the following modifications: inhibitors (0.1-10 μM) in reaction buffer (without DNA and DTT) are added to the complete reaction buffer and preincubated for 10 min at 37° C. Reactions were initiated by the addition of 600 μM ATP and incubated for 30 min at 37° C. The IC50 value was determined and the Ki was calculated using the Cheng-Prusoff equation. Experiments were repeated in triplicate and GraphPad Prism software was used to perform non-linear fits (method of least squares) to the Michaelis-Menten kinetics (Km and Vmax) or the dose-response inhibition model (IC50 values).

[1] = test system: triple negative MDA-MB-231 breast carcinoma spheroids; assay: 3D-spheroid invasion; assay type: cell-based, human; settings: through reversion of EMT
Excerpt: A 3D-spheroid culture formulation was developed that allows for the culture of single uniform spheroids with variety of cell types in 96-well plates that can be used with a variety of epithelial-mesenchymal transition (EMT) biomarker reporters (see, U.S. Patent Publication No. 2011/0143960 A1; Li Q, Chen C, Kapadia A, Zhou Q, Harper M K, et al. (2011), 3D Models of epithelial-mesenchymal transition in breast cancer metastasis: high-throughput screening assay development, validation, and pilot screen. J Biomol Screen 16: 141-154). The 3D-spheroid based assays with neo (control) and derivatives were used to test their ability to revert EMT or induce cytotoxicity against human carcinomas resistant to clinically used TopoIIα drugs, including: MDA-MB-231, MCF7/AdrVP breast cancer, and SW480, Colo201, and DLD-1 (APC mutant) colon cancer cells. This 3D-model utilizes a luciferase reporter of vimentin, a key mesenchymal biomarker expressed in these cells. Vimentin expression is measured using a live spheroid luciferin substrate (caged luciferin) followed by a multiplex assay measuring spheroid viability. […]
Active compounds are then tested for their ability to inhibit spheroid invasion, as follows: Spheroid invasion is measured using 15 spheroids per sample group. […] Invading cells will be measured using an OPERETTA™ high content imaging system.

[2] = test system: human colon tumor (HCT-116); settings: compared with 9-aminocamptothecin; cited from earlier work
xenograft tumors = settings: in mice; compared with etoposide; cited from earlier work
DNA = settings: below 100 μM concentrations; cited from earlier work
Pgp = Pgp (Homo sapiens, UniProt P08183); settings: cited from earlier work
Chain of Pgp (P08183 whole entry): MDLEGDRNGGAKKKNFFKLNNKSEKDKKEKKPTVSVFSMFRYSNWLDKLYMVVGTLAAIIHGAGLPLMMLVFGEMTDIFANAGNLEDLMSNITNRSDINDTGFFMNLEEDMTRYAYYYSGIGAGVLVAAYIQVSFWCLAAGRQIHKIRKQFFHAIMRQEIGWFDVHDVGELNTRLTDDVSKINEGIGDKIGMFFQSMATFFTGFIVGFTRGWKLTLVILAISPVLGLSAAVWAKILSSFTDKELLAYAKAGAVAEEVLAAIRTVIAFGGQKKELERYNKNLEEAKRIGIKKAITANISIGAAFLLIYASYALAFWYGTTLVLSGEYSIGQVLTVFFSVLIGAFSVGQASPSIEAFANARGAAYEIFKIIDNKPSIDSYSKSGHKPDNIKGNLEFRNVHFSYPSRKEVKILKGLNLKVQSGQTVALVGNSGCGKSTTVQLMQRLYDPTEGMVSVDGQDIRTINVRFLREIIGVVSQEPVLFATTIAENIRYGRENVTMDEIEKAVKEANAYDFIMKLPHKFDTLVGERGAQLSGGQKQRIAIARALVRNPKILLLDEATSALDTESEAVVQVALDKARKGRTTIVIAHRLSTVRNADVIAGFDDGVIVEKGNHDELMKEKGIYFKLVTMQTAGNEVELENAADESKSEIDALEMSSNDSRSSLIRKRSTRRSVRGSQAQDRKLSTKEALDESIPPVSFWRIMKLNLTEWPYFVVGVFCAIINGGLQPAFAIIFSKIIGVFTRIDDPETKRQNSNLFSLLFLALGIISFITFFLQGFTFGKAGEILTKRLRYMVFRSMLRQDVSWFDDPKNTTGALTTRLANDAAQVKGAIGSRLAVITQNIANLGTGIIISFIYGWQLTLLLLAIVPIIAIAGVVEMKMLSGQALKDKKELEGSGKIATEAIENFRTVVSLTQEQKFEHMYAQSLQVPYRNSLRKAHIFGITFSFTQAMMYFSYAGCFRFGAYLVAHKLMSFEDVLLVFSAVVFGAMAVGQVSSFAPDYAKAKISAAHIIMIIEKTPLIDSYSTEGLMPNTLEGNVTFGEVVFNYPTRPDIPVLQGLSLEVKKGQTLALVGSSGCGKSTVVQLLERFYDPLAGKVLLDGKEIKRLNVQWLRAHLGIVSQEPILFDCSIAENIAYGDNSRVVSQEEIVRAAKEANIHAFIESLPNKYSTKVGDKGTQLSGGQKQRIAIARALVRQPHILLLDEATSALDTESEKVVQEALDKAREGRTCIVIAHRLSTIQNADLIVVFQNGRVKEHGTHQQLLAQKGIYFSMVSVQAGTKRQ

Chain of TopoIIα (P11388 whole entry): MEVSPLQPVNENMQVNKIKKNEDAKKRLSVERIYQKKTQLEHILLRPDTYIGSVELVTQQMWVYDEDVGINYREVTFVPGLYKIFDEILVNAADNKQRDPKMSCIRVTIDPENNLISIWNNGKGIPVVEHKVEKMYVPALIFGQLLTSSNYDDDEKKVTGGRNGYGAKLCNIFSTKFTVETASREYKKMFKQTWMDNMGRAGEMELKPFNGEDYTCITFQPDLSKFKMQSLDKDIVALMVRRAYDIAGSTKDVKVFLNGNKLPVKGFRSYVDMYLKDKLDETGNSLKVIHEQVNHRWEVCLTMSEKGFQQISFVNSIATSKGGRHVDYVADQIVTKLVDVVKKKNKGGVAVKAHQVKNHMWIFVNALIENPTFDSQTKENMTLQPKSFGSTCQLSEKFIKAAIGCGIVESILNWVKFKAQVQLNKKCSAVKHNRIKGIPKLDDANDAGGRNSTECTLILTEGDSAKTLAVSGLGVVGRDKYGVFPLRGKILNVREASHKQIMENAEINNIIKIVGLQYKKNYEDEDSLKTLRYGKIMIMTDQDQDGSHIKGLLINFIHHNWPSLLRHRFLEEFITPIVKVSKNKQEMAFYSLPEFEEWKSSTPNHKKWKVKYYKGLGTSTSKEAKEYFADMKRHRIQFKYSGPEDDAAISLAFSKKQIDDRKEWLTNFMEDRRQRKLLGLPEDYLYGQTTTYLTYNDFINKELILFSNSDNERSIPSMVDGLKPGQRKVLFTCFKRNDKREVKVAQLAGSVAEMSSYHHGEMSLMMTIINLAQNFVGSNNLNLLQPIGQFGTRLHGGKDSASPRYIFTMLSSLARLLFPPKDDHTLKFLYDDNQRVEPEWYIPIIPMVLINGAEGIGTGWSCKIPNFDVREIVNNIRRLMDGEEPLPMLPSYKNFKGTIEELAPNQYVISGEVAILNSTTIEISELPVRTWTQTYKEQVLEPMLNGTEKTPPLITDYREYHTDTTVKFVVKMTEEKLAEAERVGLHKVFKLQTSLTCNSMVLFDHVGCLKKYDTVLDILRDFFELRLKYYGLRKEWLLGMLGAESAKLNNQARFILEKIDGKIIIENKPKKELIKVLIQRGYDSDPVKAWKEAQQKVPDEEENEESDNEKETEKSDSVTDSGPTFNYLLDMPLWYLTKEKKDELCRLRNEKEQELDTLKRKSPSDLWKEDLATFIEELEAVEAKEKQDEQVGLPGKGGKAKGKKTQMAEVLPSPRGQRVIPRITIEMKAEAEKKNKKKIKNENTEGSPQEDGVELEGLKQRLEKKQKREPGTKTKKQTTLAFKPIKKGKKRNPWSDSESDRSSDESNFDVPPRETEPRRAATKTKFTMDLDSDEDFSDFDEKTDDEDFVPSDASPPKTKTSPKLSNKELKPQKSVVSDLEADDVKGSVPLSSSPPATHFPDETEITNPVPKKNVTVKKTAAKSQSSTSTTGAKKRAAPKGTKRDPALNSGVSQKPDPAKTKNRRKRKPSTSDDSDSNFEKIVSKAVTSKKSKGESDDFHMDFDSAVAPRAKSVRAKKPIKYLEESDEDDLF

Cn1ccc2c(c1=O)C(=O)c1nccc3c1c-2nc1ccccc13 [neo, Neoamphimedine]
Ki (TopoIIα; corresponding to the IC50, calculated using the Cheng-Prusoff equation, read-out: Ki, inhibition of TopoIIα ATPase function): 800 ± 300 nM
increase of the apparent Km of TopoIIα for ATP (TopoIIα; over a concentration range from 0-10 μM): approximately 2 fold
IC50 (TopoIIα; read-out: IC50, inhibition of TopoIIα ATPase function): 2000 nM
inhibition of invasive potential of spheroids [1]: significantly inhibits the invasive potential
efficacy in HCT-116 xenografts [2]: as efficacious as
inhibition of the growth of xenograft tumors (xenograft tumors): as effective as etoposide
stabilization of the cleaved complex, DNA strand breaks or intercalation of DNA (DNA): without stabilizing the cleaved complex, or causing significant DNA strand breaks or intercalation of DNA
substrate for Pgp-dependent MDR (Pgp): not a substrate
